Measurements reported in publication PMC8894927, “Oxylipin signaling in salt-stressed soybean is modulated by ligand-dependent interaction of Class II acyl-CoA-binding proteins with lipoxygenase” (The Plant Cell, 2021).
“And” between values parts separate entries of the source, which are not always exact repeats. Identical values can stand only once.

Columns and labels:
(His)6-GmACBP4.1_33–354 [1] = assay: Isothermal titration calorimetry of acyl-CoA binding (WT protein); parameters: species or system soybean; conditions: ITC at 25°C; 15 μM protein titrated with 200 μM acyl-CoA; mean ± SD, three experiments; read-out: KD, dissociation constant
Description: ITC was conducted with a MicroCal iTC200 system (GE Healthcare) at 25°C in 10 mM sodium phosphate (pH 7) by 20 injections of 1.8-μL acyl-CoAs (200 μM; Avanti Polar Lipids Inc., Alabaster, AL, USA) into the sample cell with 15 μM purified (His)6-GmACBP4.1. Each injection lasted 4 s at 150-s intervals with a stirring speed of 1,000 rpm. Nonspecific heat effects were estimated and corrected after saturation. The baseline was adjusted, and the data were fitted into a single-site binding model using the Origin version 7.0 software (OriginLab).
Supplemental Table 1. Binding constants and thermodynamic parameters for (His)6-GmACBP4.133–354 interaction with acyl-CoAs. (Supports Figure 5A) […]
Isothermal titration calorimetry analysis was performed by titration of 250 μL of 15 μM (His)6-GmACBP4.133–354 with […]
from three independent experiments. n, stoichiometry (number of ligand sites per protein); KD, dissociation constant; ∆H, enthalpy change; −T∆S, entropy change; ∆G, Gibbs free energy.

[2] = biological target: (His)6-GmACBP4.1_33–354 (WT or Y135A mutant); assay: Protein–lipid bead binding assay with competing acyl-CoA (PA beads); parameters: species or system soybean
[3] = test system: GmACBP4.1_33–354 interaction with VLXB:StrepII; assay: Strep-Tactin pull-down assay with supplemented acyl-CoAs; type: binding, soybean; conditions: acyl-CoA 12.5–100 μM, versus control without acyl-CoA
[4] = test system: GmACBP4.1_33–354 interaction with GmPLDα1:StrepII; assay: as above; type: binding, soybean; conditions: acyl-CoA 12.5–100 μM, versus control without acyl-CoA
From the text: Figure 6 Specific acyl-CoA species facilitate GmACBP4 interaction with VLXB and GmPLDα1. A, Strep-Tactin pull-down assays. […] (His)6-GmACBP4.1_33–354 were detected in eluates by immunoblotting using anti-ACBP3 antibodies. […] Input lanes represent 1% protein. Arrowheads indicate target bands of 40-kD (His)6-GmACBP4.1_33–354 (apparent: 50 kD). The bound protein fraction was quantified densitometrically. […] B–C, Strep-Tactin pull-down assays with supplemented acyl-CoAs. […] Input lanes represent 5% proteins in (B) or 10% proteins in (C). Arrowheads indicate target bands of 40-kD (His)6-GmACBP4.1_33–354 (apparent: 50kD).
Strep-Tactin pull-down assays were performed using Strep-Tactin XT resins (IBA) following the manufacturer’s instructions. Briefly, 5 μL of resins with/without prebound VLXB:StrepII or GmPLDα1:StrepII (0.5 μM) were agitated with GmACBP4.1_33–354 (0.5 μM) and acyl-CoAs (0, 12.5, 25, 50, and 100 μM) in Buffer W containing 0.1 M Tris–HCl (pH 7), 0.15 M NaCl, 1 mM EDTA and 0.05% (w/v) Triton X-100 at 4°C for 2 h. After three washes in Buffer W, bound proteins were eluted in Buffer W with 50 mM biotin, and analyzed by immunoblotting using anti-ACBP3.1 antibodies.

AtACBP1 = biological target: AtACBP1; parameters: method as in Xue et al., 2014; conditions: ref Xue et al., 2014; cited from earlier work
GmACBP4.1_33–354 (WT) = biological target: T1, GmACBP4.1_33–354 (WT) (Glycine max, UniProt I1KAV2); conditions: SEM, n = 3
T1 construct: gene LOC100816670
T1 sequence (I1KAV2 33-354): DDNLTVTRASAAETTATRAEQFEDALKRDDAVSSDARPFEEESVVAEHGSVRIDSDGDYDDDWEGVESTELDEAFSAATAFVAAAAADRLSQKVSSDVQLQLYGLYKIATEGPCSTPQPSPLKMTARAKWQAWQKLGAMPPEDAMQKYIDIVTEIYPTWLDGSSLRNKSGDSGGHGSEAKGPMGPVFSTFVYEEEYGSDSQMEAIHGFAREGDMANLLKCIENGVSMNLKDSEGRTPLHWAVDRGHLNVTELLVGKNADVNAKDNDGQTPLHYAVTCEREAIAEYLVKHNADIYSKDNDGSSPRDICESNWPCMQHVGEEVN
From the text: The liposome-associated protein fraction was quantified densitometrically. […] D, Protein–lipid bead binding assays with competing acyl-CoAs. […] Bound and unbound WT (left panel) and Y135A (middle panel) were detected by immunoblotting using anti-GsACBP3 antibodies. Input lanes represent 50% protein. Arrowheads indicate target bands. The PA-bound protein fraction was quantified densitometrically. The half maximal inhibitory concentration (IC50) of the WT is the mean ± SEM from three independent experiments.
To validate this assumption, the binding of the WT and Y135A mutant to PA beads was investigated in the presence of C18:2-CoA (Figure 5, D).
After three washes in the same buffer, bound proteins were eluted with 6× Laemmli sample buffer. Protein binding on filter strips, liposomes, and PA beads was detected by immunoblotting using anti-ACBP3.1 antibodies.

(His)6-GmACBP3.1_33–346 = assay: Protein–lipid overlay assay; type: binding, soybean; conditions: commercial strips with 15 neutral and polar lipids; 0.5 μg mL−1 protein
(His)6-GmACBP4.1_33–354 [5] = assay: Protein–lipid overlay assay; type: binding, soybean; conditions: commercial strips and PA-spotted nitrocellulose strips; 0.5 μg mL−1 protein
(His)6-GmACBP4.1_33–354 [6] = assay: Liposome association assay for PA binding; parameters: species or system soybean; conditions: PA:di-16:0-PC liposomes, 0–100% (w/w) PA
[7] = test system: AtACBP2 interaction with LYSOPL2; parameters: method as in Miao et al., 2019; conditions: ref Miao et al., 2019; cited from earlier work
VLXB:StrepII [8] = biological target: T2, VLXB:StrepII (soybean, UniProt A0A0R0G554 1-853); assay: cell-based or functional assay
T2 sequence (looked up): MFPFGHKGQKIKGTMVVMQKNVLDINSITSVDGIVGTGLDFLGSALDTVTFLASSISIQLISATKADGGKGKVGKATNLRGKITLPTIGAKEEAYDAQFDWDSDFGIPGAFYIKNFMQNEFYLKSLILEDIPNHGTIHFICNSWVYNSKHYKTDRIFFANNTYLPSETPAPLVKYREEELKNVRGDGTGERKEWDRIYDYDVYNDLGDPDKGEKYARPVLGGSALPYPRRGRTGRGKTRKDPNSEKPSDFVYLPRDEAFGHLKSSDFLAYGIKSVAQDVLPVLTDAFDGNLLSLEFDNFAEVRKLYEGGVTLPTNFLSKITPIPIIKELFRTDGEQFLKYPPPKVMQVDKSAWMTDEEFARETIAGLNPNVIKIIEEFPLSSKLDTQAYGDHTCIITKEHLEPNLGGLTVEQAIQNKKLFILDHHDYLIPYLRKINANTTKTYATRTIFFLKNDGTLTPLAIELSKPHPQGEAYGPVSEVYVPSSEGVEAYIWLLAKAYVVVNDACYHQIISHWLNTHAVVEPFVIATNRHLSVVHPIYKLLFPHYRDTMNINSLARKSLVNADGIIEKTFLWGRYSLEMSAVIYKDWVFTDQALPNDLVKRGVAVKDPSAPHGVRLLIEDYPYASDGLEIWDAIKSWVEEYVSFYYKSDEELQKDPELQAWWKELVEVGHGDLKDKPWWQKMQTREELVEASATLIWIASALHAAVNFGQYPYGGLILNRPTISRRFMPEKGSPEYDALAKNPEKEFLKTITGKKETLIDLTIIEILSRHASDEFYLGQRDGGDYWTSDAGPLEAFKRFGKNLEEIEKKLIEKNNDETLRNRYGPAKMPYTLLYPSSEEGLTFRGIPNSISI

VLXB:StrepII [9] = biological target: T2, VLXB:StrepII; assay: pull-down; Strep-Tactin XT resins with prebound VLXB:StrepII or GmPLDα1:StrepII (0.5 μM) agitated with (His)6-GmACBP4.1(33-354) (0.5 μM) and acyl-CoAs (0, 12.5, 25, 50, 100 μM) in 0.1 M Tris-HCl pH 7, 0.15 M NaCl, 1 mM EDTA, 0.05% Triton X-100 at 4°C for 2 h; eluted with 50 mM biotin; immunoblot with anti-ACBP3.1 antibodies; conditions: both partners purified
GmPLDα1:StrepII = biological target: T3, GmPLDα1:StrepII (soybean, UniProt I1KH24 1-809); assay: as above; conditions: both partners purified
T3 construct: GmPLDα1, soybean phospholipase Dα1 (Glyma.07G031100), ORF; In pRSETA (pGM1032); the methods call these proteins (His)6/StrepII-tagged; also called soybean PHOSPHOLIPASE Dα1; source: E. coli, purified (HisTrap HP, Strep-Tactin XT); not shown: StrepII, C-terminal, kept
T3 sequence (looked up): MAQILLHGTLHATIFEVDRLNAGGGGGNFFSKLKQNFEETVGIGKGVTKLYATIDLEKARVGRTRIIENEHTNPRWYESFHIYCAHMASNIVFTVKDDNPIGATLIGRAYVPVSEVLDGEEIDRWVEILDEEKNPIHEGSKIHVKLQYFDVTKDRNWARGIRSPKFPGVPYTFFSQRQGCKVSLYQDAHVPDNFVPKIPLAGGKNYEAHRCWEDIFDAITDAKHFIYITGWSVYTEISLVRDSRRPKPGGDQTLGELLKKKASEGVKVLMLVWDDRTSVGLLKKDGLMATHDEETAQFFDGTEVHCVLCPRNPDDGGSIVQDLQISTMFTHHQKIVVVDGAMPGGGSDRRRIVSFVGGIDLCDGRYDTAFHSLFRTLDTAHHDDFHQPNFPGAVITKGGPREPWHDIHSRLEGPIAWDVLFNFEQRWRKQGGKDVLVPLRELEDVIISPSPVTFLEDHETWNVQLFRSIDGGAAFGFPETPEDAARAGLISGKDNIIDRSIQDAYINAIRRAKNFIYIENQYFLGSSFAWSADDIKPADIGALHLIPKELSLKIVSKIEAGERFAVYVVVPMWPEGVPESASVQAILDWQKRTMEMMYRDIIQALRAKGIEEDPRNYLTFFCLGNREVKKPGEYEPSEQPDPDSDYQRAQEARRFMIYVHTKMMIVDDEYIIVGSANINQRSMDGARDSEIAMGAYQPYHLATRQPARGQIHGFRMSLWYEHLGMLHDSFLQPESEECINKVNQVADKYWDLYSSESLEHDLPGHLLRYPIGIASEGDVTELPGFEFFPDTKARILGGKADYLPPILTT

## CCCCC/C=C\C/C=C\CCCCCCCC(=O)SCCNC(=O)CCNC(=O)[C@H](O)C(C)(C)COP(=O)(O)OP(=O)(O)OC[C@H]1O[C@@H](n2cnc3c(N)ncnc32)[C@H](O)[C@@H]1OP(=O)(O)O [C18:2-CoA, linoleoyl-CoA]
(His)6-GmACBP4.1_33–354 [1]
  Kd: 920 nM and 900 to 1200 nM
[2]; WT protein 2.5 μg mL−1, 1 μM PA beads, competing C18:2-CoA, mean ± SEM, three experiments, read-out: half maximal inhibitory concentration (IC50) for PA-bound WT fraction
  IC50: 22900 nM
[2]; Y135A mutant, compared with WT
  effect on Y135A binding to PA beads: less affected
[3]
  increase in WT binding with VLXB:StrepII: up to four-fold
[4]
  increase in WT binding with GmPLDα1:StrepII: did not influence
AtACBP1
  Kd: 400 to 800 nM
GmACBP4.1_33–354 (WT)
  IC50: 22900 nM

## CCCCCCCCCCCCCCCC(=O)OCC(COP(=O)(O)O)OC(=O)CCCCCCCCCCCCCCC (centres unmarked) [di-16:0-PA]
(His)6-GmACBP3.1_33–346
  binding on lipid filter strips: sole ligand
(His)6-GmACBP4.1_33–354 [5]
  binding on lipid filter strips: sole ligand
(His)6-GmACBP4.1_33–354 [6]
  descending order of affinity to the WT (liposome association): di-16:0-PA ≈ di-18:1-PA > di-18:0-PA > di-14:0-PA
(His)6-GmACBP4.1_33–354 [6]; listed as 32:0-PA
  descending order of affinity to the WT (liposome association): relatively higher affinity

## lysophosphatidylcholine
[7]
  fold higher affinity of AtACBP2 for LYSOPL2 interaction when complexed with the ligand: 10 fold

B1: (His)6-GmACBP4.1_(33–354) (domain or fragment, UniProt I1KAV2 33-354, looked up)
chain: DDNLTVTRASAAETTATRAEQFEDALKRDDAVSSDARPFEEESVVAEHGSVRIDSDGDYDDDWEGVESTELDEAFSAATAFVAAAAADRLSQKVSSDVQLQLYGLYKIATEGPCSTPQPSPLKMTARAKWQAWQKLGAMPPEDAMQKYIDIVTEIYPTWLDGSSLRNKSGDSGGHGSEAKGPMGPVFSTFVYEEEYGSDSQMEAIHGFAREGDMANLLKCIENGVSMNLKDSEGRTPLHWAVDRGHLNVTELLVGKNADVNAKDNDGQTPLHYAVTCEREAIAEYLVKHNADIYSKDNDGSSPRDICESNWPCMQHVGEEVN
notes: In pRSETA (pGM963); also called WT; recombinant GmACBP4.1 without the TM domain; source: E. coli, purified (HisTrap HP, HiTrap Q HP); not shown: (His)6, N-terminal, kept
VLXB:StrepII [8]
  IC50 of in vitro LOX activity of 100 nM VLXB:StrepII after incubation with 0.1-300 nM (His)6-GmACBP4.1(33-354) WT and 10 µM C18:2-CoA: 8.5 nM
  IC50 of in vitro LOX activity of 100 nM VLXB:StrepII after incubation with 0.1-300 nM (His)6-GmACBP4.1(33-354) WT and 10 µM C18:3-CoA: 5 nM
VLXB:StrepII [9]
  fold increase of binding with 100 µM C18:3-CoA against no acyl-CoA: 9 fold
  fold increase of binding with C18:2-CoA against no acyl-CoA: ≤ 4 fold
GmPLDα1:StrepII
  fold increase of binding with C16:0/C18:1-CoAs against no acyl-CoA: ≤ 9 fold
